According to ChEMBL document CHEMBL3872232, “2-Azetidinones: Synthesis and biological evaluation as potential anti-breast cancer agents” (Eur J Med Chem, 2016):
Active and inactive are the calls of the source. The calls are words filed in the database; no cut-off is given here.

Experiments:
[1] = tested on: MDA-MB-231; assay: Ratio of Bcl-2 to Bax gene expression in human MDA-MB-231 cells at 5 uM after 24 hrs by RT-PCR method (reference value: 0.03); assay type: functional
[2] = tested on: MDA-MB-231; assay: Effect on Cdk2 mRNA expression in human MDA-MB-231 cells assessed as ratio of Cdk2 to GAPDH expression level at 5 uM after 24 hrs by RT-PCR method (reference value: 0.26); assay type: functional
[3] = tested on: MDA-MB-231; assay: Inhibition of Akt in human MDA-MB-231 cells after 48 hrs by ELISA; assay type: cell-based
[4] = organism: Homo sapiens; assay: Inhibition of Akt in human MDA-MB-231 cells assessed as ratio of phosphorylated Akt to GAPDH expression level at 10 uM after 48 hrs by immunoblot analysis (reference value: 0.33 to 0.81); assay type: cell-based
[5] = tested on: MDA-MB-231; assay: Effect on Bid gene expression in human MDA-MB-231 cells assessed as ratio of Bid to beta-actin expression level at 5 uM after 24 hrs by RT-PCR method (reference value: 0.17); assay type: functional
[6] = organism: Homo sapiens; assay: Inhibition of Akt in human MDA-MB-231 cells assessed as ratio of phosphorylated GSK-3beta to GAPDH expression level at 10 uM after 48 hrs by immunoblot analysis (reference value: 0.14 to 1.50); assay type: cell-based
[7] = Antiproliferative activity against human mammary epithelial cells after 48 hrs by MTT assay; assay type: cell-based, Epithelial cell
[8] = tested on: MDA-MB-231; assay: Induction of apoptosis in human MDA-MB-231 cells assessed as necrotic cells at 5 uM after 24 hrs by Annexin V-FITC/propidium iodide staining based flow cytometry (reference value: 1.3%); assay type: functional
[9] = Antiproliferative activity against human MDA-MB-231 cells after 48 hrs by MTT assay; assay type: functional, cell-based; conditions: MDA-MB-231, 48 h
[10] = tested on: MDA-MB-231; assay: Effect on p21 mRNA expression in human MDA-MB-231 cells assessed as ratio of p21 to GAPDH expression level at 5 uM after 24 hrs by RT-PCR method (reference value: 0.02); assay type: functional
[11] = tested on: MDA-MB-231; assay: Inhibition of Akt in human MDA-MB-231 cells assessed as reduction in GSK-3beta phosphorylation after 48 hrs by immunoblot analysis; assay type: cell-based
[12] = Cell cycle arrest in human MCF7 cells assessed as accumulation at G0/G1 phase at 5 uM after 24 hrs by propidium iodide staining based flow cytometry (reference value: 83.25%); assay type: functional
[13] = tested on: MDA-MB-231; assay: Effect on cyclin D1 mRNA expression in human MDA-MB-231 cells assessed as ratio of cyclin D1 to GAPDH expression level at 5 uM after 24 hrs by RT-PCR method (reference value: 0.71); assay type: functional
[14] = tested on: MCF7; assay: Induction of apoptosis in human MCF7 cells assessed as necrotic cells at 5 uM after 24 hrs by Annexin V-FITC/propidium iodide staining based flow cytometry (reference value: 3.7%); assay type: functional
[15] = Cell cycle arrest in human MCF7 cells assessed as accumulation at sub-G1 phase at 5 uM after 24 hrs by propidium iodide staining based flow cytometry (reference value: 3.58%); assay type: functional
[16] = tested on: MCF7; assay: Induction of apoptosis in human MCF7 cells assessed as late apoptotic cells at 5 uM after 24 hrs by Annexin V-FITC/propidium iodide staining based flow cytometry (reference value: 2.3%); assay type: functional
[17] = tested on: MDA-MB-231; assay: Effect on Cdk6 mRNA expression in human MDA-MB-231 cells assessed as ratio of Cdk6 to GAPDH expression level at 5 uM after 24 hrs by RT-PCR method (reference value: 1.37); assay type: functional
[18] = organism: Homo sapiens; assay: Inhibition of Akt in human MDA-MB-231 cells assessed as ratio of phosphorylated Akt to GAPDH expression level at 2 uM after 48 hrs by immunoblot analysis (reference value: 0.33 to 0.81); assay type: cell-based
[19] = tested on: MDA-MB-231; assay: Induction of apoptosis in human MDA-MB-231 cells assessed as late apoptotic cells at 5 uM after 24 hrs by Annexin V-FITC/propidium iodide staining based flow cytometry (reference value: 1.8%); assay type: functional
[20] = Safety index, ratio of compound IC50 to colchicine IC50 for human mammary epithelial cells; assay type: ADME, cell-based, Epithelial cell; conditions: read-out: Ratio IC50
[21] = organism: Homo sapiens; assay: Inhibition of Akt in human MDA-MB-231 cells assessed as ratio of phosphorylated Akt to GAPDH expression level at 5 uM after 48 hrs by immunoblot analysis (reference value: 0.33 to 0.81); assay type: cell-based
[22] = Antiproliferative activity against human MCF7 cells after 48 hrs by MTT assay; assay type: functional, cell-based; conditions: MCF7, 48 h
[23] = organism: Homo sapiens; assay: Inhibition of Akt in human MDA-MB-231 cells assessed as ratio of phosphorylated GSK-3beta to GAPDH expression level at 5 uM after 48 hrs by immunoblot analysis (reference value: 0.14 to 1.50); assay type: cell-based
[24] = tested on: MDA-MB-231; assay: Induction of apoptosis in human MDA-MB-231 cells assessed as early apoptotic cells at 5 uM after 24 hrs by Annexin V-FITC/propidium iodide staining based flow cytometry (reference value: 0.5%); assay type: functional
[25] = tested on: MDA-MB-231; assay: Effect on p27 mRNA expression in human MDA-MB-231 cells assessed as ratio of p27 to GAPDH expression level at 5 uM after 24 hrs by RT-PCR method (reference value: 0.23); assay type: functional
[26] = tested on: MDA-MB-231; assay: Effect on p53 gene expression in human MDA-MB-231 cells assessed as ratio of p53 to beta-actin expression level at 5 uM after 24 hrs by RT-PCR method (reference value: 0.22); assay type: functional
[27] = organism: Homo sapiens; assay: Inhibition of Akt in human MDA-MB-231 cells assessed as ratio of phosphorylated GSK-3beta to GAPDH expression level at 2 uM after 48 hrs by immunoblot analysis (reference value: 0.14 to 1.50); assay type: cell-based
[28] = tested on: MCF7; assay: Induction of apoptosis in human MCF7 cells assessed as early apoptotic cells at 5 uM after 24 hrs by Annexin V-FITC/propidium iodide staining based flow cytometry (reference value: 1.6%); assay type: functional
[29] = Cell cycle arrest in human MCF7 cells assessed as accumulation at G2/M phase at 5 uM after 24 hrs by propidium iodide staining based flow cytometry (reference value: 9.29%); assay type: functional
[30] = tested on: MDA-MB-231; assay: Effect on cyclin E mRNA expression in human MDA-MB-231 cells assessed as ratio of cyclin E to GAPDH expression level at 5 uM after 24 hrs by RT-PCR method (reference value: 0.13); assay type: functional
[31] = Cell cycle arrest in human MCF7 cells assessed as accumulation at S phase at 5 uM after 24 hrs by propidium iodide staining based flow cytometry (reference value: 4.23%); assay type: functional
[32] = Cell cycle arrest in human MDA-MB-231 cells assessed as increase in cell accumulation at G2/M phase at 5 uM after 24 hrs by propidium iodide staining based flow cytometry; assay type: functional
[33] = tested on: MDA-MB-231; assay: Inhibition of Akt phosphorylation in human MDA-MB-231 cells after 48 hrs by immunoblot analysis; assay type: cell-based
[34] = tested on: MCF7; assay: Induction of apoptosis in human MCF7 cells assessed as increase in necrotic cells at 5 uM after 24 hrs by Annexin V-FITC/propidium iodide staining based flow cytometry relative to colchicine; assay type: functional
[35] = tested on: MCF7; assay: Inhibition of Akt phosphorylation in human MCF7 cells after 48 hrs by immunoblot analysis; assay type: cell-based
[36] = tested on: MCF7; assay: Inhibition of Akt in human MCF7 cells assessed as GSK-3beta phosphorylation reduction in after 48 hrs by immunoblot analysis; assay type: cell-based
[37] = Cell cycle arrest in human MDA-MB-231 cells assessed as increase in cell accumulation at sub-G1 phase at 5 uM after 24 hrs by propidium iodide staining based flow cytometry; assay type: functional
[38] = organism: Homo sapiens; assay: Inhibition of Akt in human MDA-MB-231 cells assessed as ratio of phosphorylated GSK-3beta to GAPDH expression level at 100 nM after 48 hrs by immunoblot analysis (reference value: 0.14 to 1.50); assay type: cell-based
[39] = organism: Homo sapiens; assay: Inhibition of Akt in human MDA-MB-231 cells assessed as ratio of phosphorylated Akt to GAPDH expression level at 100 nM after 48 hrs by immunoblot analysis (reference value: 0.33 to 0.81); assay type: cell-based
[40] = Homo sapiens, Epithelial cell, 48 h, read-out: IC50

| Structure (SMILES) | Ratio [1] | Ratio [2] | Ratio [5] | Activity [8] [%] | IC50 [9] [µM] | Ratio [10] | Activity [12] [%] | Ratio [13] | Activity [14] [%] | Activity [15] [%] | Activity [16] [%] | Ratio [17] | Activity [19] [%] | Ratio [21] | IC50 [22] [µM] | Ratio [23] | Activity [24] [%] | Ratio [25] | Ratio [26] | Activity [28] [%] | further results |
| --- | --- | --- | --- | --- | --- | --- | --- | --- | --- | --- | --- | --- | --- | --- | --- | --- | --- | --- | --- | --- | --- |
| CO[C@@H]1C(=O)N(C/C(C#N)=C/c2ccccc2)[C@@H]1c1ccc(F)cc1 | 0.03 | 0.32 | 0.39 | 1.6 | 9.24 | 0.09 | 83.2 | 1.59 | 6.9 | 2.83 | 2.3 | 1.3 | 4.7 | 0.45 | 8.31 | 0.22 | 1.1 | 0.33 | 0.21 | 1.7 | inhibition [3]: Dose-dependent effect; Ratio [4]: 0.58; Ratio [6]: 0.2; IC50 ([7]; epithelial cell): Non-Toxic; inhibition [11]: Dose-dependent effect; Ratio [18]: 0.42; selectivity ratio [20]: 10; Ratio [27]: 0.42; Activity [29]: 9.68%; Ratio [30]: 0.2; Activity [31]: 5.15% |
| COc1cc2c(c(OC)c1OC)-c1ccc(OC)c(=O)cc1[C@@H](NC(C)=O)CC2 [COLCHICINE] | 0.1 | 0.39 | 0.42 | 0.9 | 3.55 | 0.6 | 66.2 | 1.5 | 6.5 | 7.4 | 1.8 | 1.56 | 5.8 | 0.23 to 0.44 | 0.072 | 0.12 to 1.45 | 2.3 | 0.6 | 0.3 | 1 | IC50 [7, 40]: 9.26 µM; Activity [32]: Active; Activity [29]: 16.2%; Ratio [30]: 0.19; Activity [31]: 10.3% |
| CCOC(=O)/C(=C/c1ccccc1)CN1C(=O)[C@@H](OC)[C@H]1c1ccccc1Br | 0.01 | 0.18 | 0.56 | 0.9 | 6.86 | 0.03 | 71.2 | 0.47 | 13.1 | 12.9 | 6.7 | 0.19 | 5.4 | 0.03 | 5.79 | 0.61 | 2.2 | 0.41 | 0.25 | 4 | inhibition [3]: Dose-dependent effect; Ratio [4]: 0.01; inhibition [33]: Dose-dependent effect; Ratio [6]: 0.58; IC50 [7, 40]: 66.6 µM; fold change (FC) [34]: 2; inhibition [11]: Dose-dependent effect; inhibition [35]: Dose-dependent effect; Ratio [18]: 0.16; inhibition [36]: Dose-dependent effect; selectivity ratio [20]: 10; Ratio [27]: 1.16; Activity [37]: Active; Activity [29]: 9.11%; Ratio [30]: 0.03; Activity [31]: 5.17% |
| COC[C@H]1OC(=O)c2coc3c2[C@@]1(C)C1=C(C3=O)[C@@H]2CCC(=O)[C@@]2(C)C[C@H]1OC(C)=O |  |  |  |  |  |  |  |  |  |  |  |  |  |  |  |  |  |  |  |  | Ratio [38]: 0.61; Ratio [39]: 0.01 |
